In US5925618A, “Peptides useful as somatostatin antagonists” (American Cyanamid Company, priority 1998, dated 1999):
Square brackets hold non-standard residues; d marks the D form. Peptide text beside a SMILES is read from it.

Columns and labels:
[1] = target: T1, SSTR2 (Rattus norvegicus, UniProt P30680); assay: Competitive binding of 125I labeled S-14 to membranes of cells expressing SSTR2; conditions: 125I labeled S-14, membranes
T1 construct: expressed in transfected cells
Procedure: Membrane preparation. Tissue culture cell lines expressing transfected CDNA clones of SSTR2, and SSTR5 are used as a source of plasma membranes which specifically bind ^125 I labeled S-14 (Amersham, Arlington Heights, Ill.). Cells are removed from culture dishes by incubation at 4° C. for 5 minutes in PBS containing 1 mM EDTA, spun down (2,000 rpm, 5') and resuspended in 15 mL homogenization buffer (1 mM sodium bicarbonate pH 7.2, 1 mM EDTA, 1 mM EGTA and the following protease inhibitors: leupeptin and aprotenin at 5 μg/mL and benzamidine and bacitracin at 100 μg/mL). Cells are given 20 strokes with a Dounce homogenizer on ice and spun at 2000 rpm for 10 minutes. Membranes are isolated from the supernatant by centrifugation at 17,000 rpm for 30 minutes. The membrane pellet is washed once in 15 mL homogenization buffer and once in storage buffer (25 mM Tris pH 7.4 containing protease inhibitors). Each wash is followed by centrifugation at 17,000 rpm for 30 minutes. The membrane pellet is resuspended in storage buffer, measured for protein concentration (BioRad, Calif.) and stored at -80° C.
Binding assay. All reagents for the binding assay are prepared in binding buffer (50 mM Hepes pH 7.4, 2 mM EGTA, 5 mM MgCl2 and protease inhibitors). Membranes are thawed on ice and diluted to […] protein/50 μL binding buffer. ^125 I labeled S-14 (Amersham, Arlington Heights, Ill.) is diluted to 80-100,000 cpm/50 μL in binding buffer. Competitors, either test peptides or standards, are prepared at 4× final concentrations in binding buffer, as are wheat germ agglutinin (WGA)-linked PVC beads that contain solid scintillant (SPA beads, Amersham, Arlington Heights, Ill.). The binding assay is initiated by mixing 50 μL each of membranes, radiolabelled S-14, competitors and SPA beads in each well of a 96-well tray. The assay is incubated by shaking for 10-30 minutes at room temperature and then placing at 4° C. overnight. Bound radioligand is determined by counting in a Microbeta Liquid Scintillation counter (Wallac, Gaithersburg, Md.). Binding data is plotted and IC50 and Ki values are calculated for test compounds using Prism software (Graphpad Software Inc., San Diego, Calif.) and are shown in Table V. Binding is expressed as Ki, μM.

[2] = target: T2, S. cerevisiae (yeast) cells expressing SRIF receptors (Rattus norvegicus, UniProt P30680); assay: Yeast bioassay for SRIF antagonist activity (LY364 cells growing in response to SRIF, zone of growth inhibition); assay type: cell-based; conditions: Sample type 4th iteration; 10 μL of 5 mg/mL on disk, SRIF 10 nM, read after 3 days
T2 construct: expressed in transfected cells; host or cells: S. cerevisiae strain LY364
T2 sequence (P30680 whole entry): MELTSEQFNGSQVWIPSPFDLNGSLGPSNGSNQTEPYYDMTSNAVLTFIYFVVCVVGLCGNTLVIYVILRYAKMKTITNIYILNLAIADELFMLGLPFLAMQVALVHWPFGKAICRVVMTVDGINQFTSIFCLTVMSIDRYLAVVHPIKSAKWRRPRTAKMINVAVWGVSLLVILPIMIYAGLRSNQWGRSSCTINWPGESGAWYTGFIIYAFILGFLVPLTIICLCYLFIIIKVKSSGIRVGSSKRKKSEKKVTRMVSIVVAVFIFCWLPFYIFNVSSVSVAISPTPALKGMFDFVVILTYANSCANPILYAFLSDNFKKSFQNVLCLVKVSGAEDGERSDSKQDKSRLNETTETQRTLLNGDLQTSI
From the text: SRIF antagonist assay using S. cerevisiae (yeast) cells expressing SRIF receptors that grow in response to SRIF
Agar plates containing LY364 cells that are growing in the presence of added SRIF are the basis for a sensitive SRIF antagonist assay, whereby zones of growth inhibition result from the addition of SRIF antagonists to the surface of the agar plate (see L. A. Price, et al., Molecular and Cellular Biology, 15, 6188-6195, 1995, incorporated herein by reference).
In this assay, LY364 cells are grown overnight in 2 mL of synthetic complete(SC) medium (3.4 g/L YNB without amino acids and ammonium sulfate, 10 g/L ammonium sulfate and 1.4 g/L CSM-ura-trp) with glucose (2%) and without uracil and tryptophan. These cells are washed and cultured for 4 to 8 hours in 5 mL of SC medium with lactate (3%) and without uracil and tryptophan, and finally grown overnight in 5 mL of SC medium with galactose (2%) and without uracil and tryptophan. Molten (50° C.) SC agar medium with galactose (2%) and without uracil, tryptophan and histidine is adjusted to pH 6.8 with KOH, mixed with 2×10^4 cells/mL and SRIF (S-14, 10 nM) and poured into square (20×20 cm) petri dishes. Sterile filter disks are placed on the surface of the agar, and saturated with 10 μL of water or DMSO containing 5 mg/mL test peptides. After three days, the plates display a uniform cloudy background of LY264 cells growing in response to the added SRIF. […] This zone is quantified by measuring its diameter (mm), which varies according to the potency of the SRIF antagonist. Those peptides or mixtures of peptides displaying the largest zones of inhibition are further characterized.
Values are compared among samples in the same experiment, as the degree of yeast growth varies somewhat from assay to assay. For the first five sample types, in which progressively less complex mixtures of peptides are found, this assay is the primary determining factor in choosing which samples form the basis of subsequent syntheses.
Plates are read after 3 days. Samples shown in Table I in bold type are chosen for further synthesis. In Table I, all amino acids are D-amino acids and dashes represent undefined amino acid residues.

[3] = test system: Male Sprague-Dawley rats; assay: Serum growth hormone levels in anaesthetized rats given GRF with and without peptide 1; assay type: in vivo, rat
Procedure: Evaluation in anaesthetized rats. Male Sprague-Dawley rats are anaesthetized with Sagatal and fitted so as to allow efficient intravenous treatment with control and test compounds as well as frequent blood sampling. Blood samples are tested for growth hormone (GH) levels by radioimmunoassay. Thirty minutes after the initiation of blood sampling, rats are given 5 μg, 25 μg or 50 μg of peptide 1.
Peptide 1 is tested in combination with growth hormone releasing factor (GRF), to investigate whether said peptide may be mimicking the action of GRF. Anaesthetized rats are given GRF (1 μg) alone and in combination with peptide 1 (50 μg).

T1 sequence (P30680 whole entry): as above

| Compound | Ki [1] | Inhibition Zone [2] | also measured |
| --- | --- | --- | --- |
| CC[C@@H](C)[C@@H](NC(=O)[C@@H](Cc1ccccc1)NC(=O)[C@@H](Cc1c[nH]cn1)NC(C)=O)C(=O)N[C@H](CCCNC(=N)N)C(=O)N[C@H](Cc1c[nH]c2ccccc12)C(=O)N[C@H](CCC(N)=O)C(N)=O [His Phe Ile Arg Trp Gln] (Ac-[dH][dF][dI][dR][dW][dQ]-NH2) | – | 16 mm | – |
| CC[C@@H](C)[C@@H](NC(=O)[C@@H](Cc1ccccc1)NC(=O)[C@@H](Cc1c[nH]cn1)NC(C)=O)C(=O)N[C@H](CCCNC(=N)N)C(=O)N[C@H](Cc1c[nH]c2ccccc12)C(=O)N[C@H](Cc1c[nH]c2ccccc12)C(N)=O [His Phe Ile Arg Trp Trp] (Ac-[dH][dF][dI][dR][dW][dW]-NH2) | – | 16 mm | – |
| CC[C@@H](C)[C@@H](NC(=O)[C@@H](Cc1ccccc1)NC(=O)[C@@H](Cc1c[nH]cn1)NC(C)=O)C(=O)N[C@H](CCCNC(=N)N)C(=O)N[C@H](Cc1c[nH]c2ccccc12)C(=O)NCC(N)=O [His Phe Ile Arg Trp Gly] (Ac-[dH][dF][dI][dR][dW]G-NH2) | – | 13 mm | – |
| CC[C@@H](C)[C@H]1NC(=O)[C@@H](Cc2ccccc2)NC(=O)[C@@H](Cc2c[nH]cn2)NC(=O)[C@@H](Cc2ccccc2)NC(=O)[C@@H](Cc2c[nH]c3ccccc23)NC(=O)[C@@H](CCCNC(=N)N)NC1=O [#STR6##] (cyclo([dH][dF][dI][dR][dW][dF])) | 140 nM | – | – |
| growth hormone releasing factor [GRF] | – | – | SGH ([3]; GRF 1 μg alone or with peptide 1 50 μg at 30 min, sample 35 min): 67.1 ng/mL; SGH ([3]; GRF 1 μg alone or with peptide 1 50 μg at 30 min, sample 40 min): 103.5 ng/mL; SGH ([3]; GRF 1 μg alone or with peptide 1 50 μg at 30 min, sample 45 min): 53.1 ng/mL; SGH ([3]; GRF 1 μg alone or with peptide 1 50 μg, 30 min (time of dosing)): 8.4 ng/mL |
| CC[C@@H](C)[C@@H](NC(=O)[C@@H](Cc1ccccc1)NC(=O)[C@@H](Cc1c[nH]cn1)NC(=O)[C@@H](Cc1ccccc1)NC(=O)[C@@H](Cc1c[nH]c2ccccc12)NC(C)=O)C(=O)N[C@H](CCCNC(=N)N)C(N)=O [Peptide 32, w-f-h-f-i-r] (Ac-[dW][dF][dH][dF][dI][dR]-NH2) | 37200 nM | – | – |

More lines, main results first:

| Ki [1] | Inhibition Zone [2] | Compound | also measured |
| --- | --- | --- | --- |
| 2800 nM | – | CC[C@@H](C)[C@@H](NC(C)=O)C(=O)N[C@H](CCCNC(=N)N)C(=O)N[C@H](Cc1c[nH]c2ccccc12)C(=O)N[C@H](Cc1ccccc1)C(=O)N[C@H](Cc1c[nH]cn1)C(=O)N[C@H](Cc1ccccc1)C(N)=O [Peptide 33, i-r-w-f-h-f] (Ac-[dI][dR][dW][dF][dH][dF]-NH2) | – |
| 2500 nM | – | CC[C@@H](C)[C@@H](NC(=O)[C@@H](CCCNC(=N)N)NC(=O)[C@@H](Cc1ccccc1)NC(=O)[C@@H](Cc1c[nH]cn1)NC(C)=O)C(=O)N[C@H](Cc1c[nH]c2ccccc12)C(=O)N[C@H](Cc1ccccc1)C(N)=O [Peptide 31, h-f-r-i-w-f] (Ac-[dH][dF][dR][dI][dW][dF]-NH2) | – |
| 2800 nM | – | CC[C@@H](C)[C@@H](NC(=O)[C@@H](CCCNC(=N)N)NC(=O)[C@@H](Cc1c[nH]c2ccccc12)NC(=O)[C@@H](Cc1ccccc1)NC(=O)[C@@H](Cc1c[nH]cn1)NC(C)=O)C(=O)N[C@H](Cc1ccccc1)C(N)=O [Peptide 30, h-f-w-r-i-f] (Ac-[dH][dF][dW][dR][dI][dF]-NH2) | – |
| 970 nM | – | CC[C@@H](C)[C@@H](NC(=O)[C@@H](Cc1c[nH]c2ccccc12)NC(=O)[C@@H](Cc1c[nH]cn1)NC(C)=O)C(=O)N[C@H](CCCNC(=N)N)C(=O)N[C@H](Cc1ccccc1)C(=O)N[C@H](Cc1ccccc1)C(N)=O [Peptide 29, h-w-i-r-f-f] (Ac-[dH][dW][dI][dR][dF][dF]-NH2) | – |
